One data set addresses T1, hAMY3 receptor (Homo sapiens, UniProt O60896+P30988).
T1 sequence (P30988 25-474): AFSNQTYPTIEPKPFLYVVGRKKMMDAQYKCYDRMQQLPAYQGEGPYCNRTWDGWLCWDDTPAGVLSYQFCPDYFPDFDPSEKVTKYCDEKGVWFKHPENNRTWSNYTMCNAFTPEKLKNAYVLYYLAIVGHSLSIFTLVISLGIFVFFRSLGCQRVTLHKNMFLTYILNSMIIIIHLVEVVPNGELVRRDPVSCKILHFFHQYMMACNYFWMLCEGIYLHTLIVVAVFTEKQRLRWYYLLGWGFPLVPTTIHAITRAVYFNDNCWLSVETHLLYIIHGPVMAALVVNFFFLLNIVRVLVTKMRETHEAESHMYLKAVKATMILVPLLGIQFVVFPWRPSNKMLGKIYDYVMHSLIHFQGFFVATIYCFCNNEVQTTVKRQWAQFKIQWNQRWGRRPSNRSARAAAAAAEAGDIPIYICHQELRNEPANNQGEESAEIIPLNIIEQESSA
T1 sequence (O60896 24-148 partner): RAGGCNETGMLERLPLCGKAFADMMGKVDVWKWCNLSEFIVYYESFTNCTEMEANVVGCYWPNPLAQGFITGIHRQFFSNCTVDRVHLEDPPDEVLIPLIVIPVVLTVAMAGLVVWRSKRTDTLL
The data set can be described thus: cAMP assay for in vitro receptor activation, hAMY3-R. Format: cell-based. Conditions: cAMP assay, hAMY3 receptor; read-out: hAMY3R EC50. The procedure, abridged:
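Accumulated cAMP was detected by time-resolved FRET one hour after reagent addition. Beforehand, hAMY3-R-overexpressing monoclonal cells (2000/well, DPBS, 0.05% casein, 0.5 mM IBMX) received graded doses of compound for 30 min at room temperature; human amylin served as positive control.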
A general note: cAMP levels reflect the balance of adenylyl cyclase and phosphodiesterase activity.

Data set [1] in a line: Physical stability of peptide analogues (Thioflavin T fibrillation). Format: physicochemical. Conditions: maximum ThT signal normalized between hAMY maximum and buffer background; 40° C., shaking, four days; pH 7 per table title. The procedure, abridged:
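ThT fluorescence (450 nm excitation, 480 nm emission; 4 μM dye) was read every 10 min over four days at 40° C under 700 rpm shaking stress, after 1 h in pH 4 acetate or pH 7 phosphate (50 mM). Peak smoothed signal expressed as percent, scaled between buffer background and hAMY maximum.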

Bridge positions count the residues as written; N and C are the ends. Square brackets hold non-standard residues; d marks the D form. Peptide text beside a SMILES is read from it. Hyp = O=C(O)[C@@H]1C[C@@H](O)CN1; Cit = NC(=O)NCCC[C@H](N)C(=O)O

With `CC[C@H](C)[C@H](NC(=O)[C@H](CCC(N)=O)NC(=O)[C@H](Cc1c[nH]cn1)NC(=O)[C@H](C)NC(=O)[C@H](CC(C)C)NC(=O)[C@H](CCCNC(=N)N)NC(=O)[C@H](CCC(N)=O)NC(=O)[C@@H](NC(=O)[C@@H](NC(=O)[C@@H]1CSSC[C@H](NC(=O)CN)C(=O)N[C@@H](CCCNC(=N)N)C(=O)N[C@@H](Cc2ccccc2)C(=O)NCC(=O)N[C@@H]([C@@H](C)O)C(=O)N1)[C@@H](C)O)C(C)C)C(=O)N[C@@H](Cc1ccc(O)cc1)C(=O)N[C@@H](CCC(N)=O)C(=O)N[C@@H](Cc1ccccc1)C(=O)N[C@H](C(=O)N[C@@H](CC(=O)O)C(=O)N[C@@H](CCCCN)C(=O)N[C@@H](CC(=O)O)C(=O)N[C@@H](CCCCN)C(=O)N[C@@H](CC(=O)O)C(=O)N[C@@H](CC(N)=O)C(=O)N[C@H](C(=O)N[C@@H](C)C(=O)N1CCC[C@H]1C(=O)N[C@@H](CCCNC(=N)N)C(=O)N[C@H](C(=O)N[C@@H](CCCCN)C(=O)N[C@H](C(=O)NCC(=O)N1CCC[C@H]1C(=O)N[C@@H](CCC(N)=O)C(=O)NCC(=O)N1C[C@H](O)C[C@H]1C(N)=O)C(C)C)[C@@H](C)O)C(C)C)[C@@H](C)O` [compound 45] (H-GCRFGTCTVQRLAHQIYQFTDKDKDNVAPRTKVGPQG[Hyp]-NH2; disulfide 2-7; N-terminus assumed), the EC50 on hAMY3 receptor was determined as 0.011 nM. Also, in data set [1], the “Max ThT signal (%)” value worked out at 3.000%.
The like results for `CC[C@H](C)[C@H](NC(=O)[C@H](CCC(N)=O)NC(=O)[C@H](Cc1c[nH]cn1)NC(=O)[C@H](C)NC(=O)[C@H](CC(C)C)NC(=O)[C@H](CCCNC(=N)N)NC(=O)[C@H](CCC(N)=O)NC(=O)[C@@H](NC(=O)[C@@H](NC(=O)[C@@H]1CSSC[C@H](NC(=O)CN)C(=O)N[C@@H](CCCNC(=N)N)C(=O)N[C@@H]([C@@H](C)O)C(=O)NCC(=O)N[C@@H]([C@@H](C)O)C(=O)N1)[C@@H](C)O)C(C)C)C(=O)N[C@@H](Cc1ccc(O)cc1)C(=O)N[C@@H](CCC(N)=O)C(=O)N[C@@H](Cc1ccccc1)C(=O)N[C@H](C(=O)N[C@@H](CC(=O)O)C(=O)N[C@@H](CCCCN)C(=O)N[C@@H](CC(=O)O)C(=O)N[C@@H](CCCCN)C(=O)N[C@@H](CC(=O)O)C(=O)N[C@@H](CC(N)=O)C(=O)N[C@H](C(=O)N[C@@H](C)C(=O)N1CCC[C@H]1C(=O)N[C@@H](CCCNC(=N)N)C(=O)N[C@H](C(=O)N[C@@H](CC(N)=O)C(=O)N[C@H](C(=O)NCC(=O)N1CCC[C@H]1C(=O)N[C@@H](CCC(N)=O)C(=O)NCC(=O)N1C[C@H](O)C[C@H]1C(N)=O)C(C)C)[C@@H](C)O)C(C)C)[C@@H](C)O` [compound 49] (H-GCRTGTCTVQRLAHQIYQFTDKDKDNVAPRTNVGPQG[Hyp]-NH2; disulfide 2-7; N-terminus assumed) were, in that order, 0.011 nM and 3.200%.
Regarding `CC[C@H](C)[C@H](NC(=O)[C@H](CC(N)=O)NC(=O)[C@@H](NC(=O)[C@H](CCCNC(=N)N)NC(=O)[C@@H]1CCCN1C(=O)[C@H](C)NC(=O)[C@@H](NC(=O)[C@H](CC(N)=O)NC(=O)[C@H](CC(=O)O)NC(=O)[C@H](CCCCN)NC(=O)[C@H](CC(=O)O)NC(=O)[C@H](CCCCN)NC(=O)[C@H](CC(=O)O)NC(=O)[C@@H](NC(=O)[C@H](Cc1ccccc1)NC(=O)[C@H](CCC(N)=O)NC(=O)[C@H](Cc1ccc(O)cc1)NC(=O)[C@@H](NC(=O)[C@H](CCC(N)=O)NC(=O)[C@H](Cc1c[nH]cn1)NC(=O)[C@H](C)NC(=O)[C@H](CC(C)C)NC(=O)[C@H](CCCNC(=N)N)NC(=O)[C@H](CCC(N)=O)NC(=O)[C@@H](NC(=O)[C@@H](NC(=O)[C@@H]1CSSC[C@H](NC(=O)CN)C(=O)N[C@@H](CCCNC(=N)N)C(=O)N[C@@H](Cc2ccccc2)C(=O)NCC(=O)N[C@@H]([C@@H](C)O)C(=O)N1)[C@@H](C)O)C(C)C)[C@@H](C)CC)[C@@H](C)O)C(C)C)[C@@H](C)O)C(=O)NCC(=O)N1CCC[C@H]1C(=O)N[C@@H](CC(N)=O)C(=O)NCC(=O)N1C[C@H](O)C[C@H]1C(N)=O` [compound 81] (H-GCRFGTCTVQRLAHQIYQFTDKDKDNVAPRTNIGPNG[Hyp]-NH2; disulfide 2-7; N-terminus assumed), the EC50 on hAMY3 receptor was determined as 0.015 nM. Moreover, the “Max ThT signal (%)” value in data set [1] was 4.000%.
Turning to `CC[C@H](C)[C@H](NC(=O)[C@H](CCC(N)=O)NC(=O)[C@H](Cc1c[nH]cn1)NC(=O)[C@H](C)NC(=O)[C@H](CC(C)C)NC(=O)[C@H](CCCNC(=N)N)NC(=O)[C@H](CCC(N)=O)NC(=O)[C@@H](NC(=O)[C@@H](NC(=O)[C@@H]1CSSC[C@H](NC(=O)CN)C(=O)N[C@@H](CCCNC(=N)N)C(=O)N[C@@H]([C@@H](C)O)C(=O)NCC(=O)N[C@@H]([C@@H](C)O)C(=O)N1)[C@@H](C)O)C(C)C)C(=O)N[C@@H](Cc1ccc(O)cc1)C(=O)N[C@@H](CCC(N)=O)C(=O)N[C@@H](Cc1ccccc1)C(=O)N[C@H](C(=O)N[C@@H](CC(=O)O)C(=O)N[C@@H](CCCCN)C(=O)N[C@@H](CC(=O)O)C(=O)N[C@@H](CCCCN)C(=O)N[C@@H](CC(=O)O)C(=O)N[C@@H](CC(N)=O)C(=O)N[C@H](C(=O)N[C@@H](C)C(=O)N1CCC[C@H]1C(=O)N[C@@H](CCCNC(=N)N)C(=O)N[C@H](C(=O)N[C@@H](CC(N)=O)C(=O)N[C@H](C(=O)NCC(=O)N1CCC[C@H]1C(=O)N[C@@H](CC(N)=O)C(=O)NCC(=O)N[C@@H](Cc1ccc(O)cc1)C(N)=O)C(C)C)[C@@H](C)O)C(C)C)[C@@H](C)O` [compound 84] (H-GCRTGTCTVQRLAHQIYQFTDKDKDNVAPRTNVGPNGY-NH2; disulfide 2-7; N-terminus assumed), the EC50 on hAMY3 receptor was 0.015 nM. Also, in data set [1], the “Max ThT signal (%)” value was 14.200%.
`CC[C@H](C)[C@H](NC(=O)[C@H](C)NC(=O)CNC(=O)[C@H](CC(=O)O)NC(=O)[C@H](CCCCN)NC(=O)[C@H](CC(=O)O)NC(=O)[C@@H](NC(=O)[C@H](Cc1ccccc1)NC(=O)[C@H](CCC(N)=O)NC(=O)[C@H](Cc1ccc(O)cc1)NC(=O)[C@H](CC(C)C)NC(=O)[C@H](Cc1ccccc1)NC(=O)[C@H](Cc1c[nH]cn1)NC(=O)[C@H](C)NC(=O)[C@H](CC(C)C)NC(=O)[C@H](CCCNC(N)=O)NC(=O)[C@H](CCC(N)=O)NC(=O)[C@@H](NC(=O)[C@@H](NC(=O)[C@@H]1CSSC[C@H](NC(=O)CN)C(=O)N[C@@H](CCCNC(=N)N)C(=O)N[C@@H](Cc2ccccc2)C(=O)NCC(=O)N[C@@H]([C@@H](C)O)C(=O)N1)[C@@H](C)O)C(C)C)[C@@H](C)O)C(=O)N[C@@H](C)C(=O)N1CCC[C@H]1C(=O)N[C@@H](CCCNC(=N)N)C(=O)N[C@H](C(=O)N[C@@H](CCCCN)C(=O)N[C@H](C(=O)NCC(=O)N[C@@H](CO)C(=O)N[C@@H](CCC(N)=O)C(=O)NCC(=O)N[C@@H](Cc1ccc(O)cc1)C(N)=O)[C@@H](C)CC)[C@@H](C)O` [compound 282] (H-GCRFGTCTVQ[Cit]LAHFLYQFTDKDGAIAPRTKIGSQGY-NH2; disulfide 2-7; N-terminus assumed): the “Max ThT signal (%)” value in data set [1] is listed as 4.700%.
Still for that read-out and setting: under `CC[C@H](C)[C@H](NC(=O)[C@H](CCC(N)=O)NC(=O)[C@H](Cc1c[nH]cn1)NC(=O)[C@H](C)NC(=O)[C@H](CC(C)C)NC(=O)[C@H](Cc1c[nH]c2ccccc12)NC(=O)[C@H](CCC(N)=O)NC(=O)[C@@H](NC(=O)[C@@H](NC(=O)[C@@H]1CSSC[C@H](NC(=O)CN)C(=O)N[C@@H](CCCNC(=N)N)C(=O)N[C@@H](Cc2ccccc2)C(=O)NCC(=O)N[C@@H]([C@@H](C)O)C(=O)N1)[C@@H](C)O)C(C)C)C(=O)N[C@@H](Cc1ccc(O)cc1)C(=O)N[C@@H](CCC(N)=O)C(=O)N[C@@H](Cc1ccccc1)C(=O)N[C@H](C(=O)N[C@@H](CC(=O)O)C(=O)N[C@@H](CCCCN)C(=O)N[C@@H](CC(=O)O)C(=O)N[C@@H](CCCCN)C(=O)N[C@@H](CC(=O)O)C(=O)N[C@@H](CC(N)=O)C(=O)N[C@H](C(=O)N[C@@H](C)C(=O)N1CCC[C@H]1C(=O)N[C@@H](CCCNC(=N)N)C(=O)N[C@H](C(=O)N[C@@H](CCCCN)C(=O)N[C@H](C(=O)N[C@@H](CO)C(=O)N1CCC[C@H]1C(=O)N[C@@H](CCC(N)=O)C(=O)NCC(=O)N1C[C@H](O)C[C@H]1C(N)=O)[C@@H](C)CC)[C@@H](C)O)C(C)C)[C@@H](C)O` [compound 350] (H-GCRFGTCTVQWLAHQIYQFTDKDKDNVAPRTKISPQG[Hyp]-NH2; disulfide 2-7; N-terminus assumed) stands 15.700%.

A word on the EC50: it is the concentration that produces a half-maximal response.
